One block for each compound: values may come before it.
How the values were obtained:
[1] = tested on: A549 cells; experiment: in vitro antiproliferation assay, A549 (lung); assay type: cell-based
Outline: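 Standard in vitro antiproliferation assays on tumour cell lines, including A549 and H1299 (both lung); IC50 values determined.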

[2] = tested on: H1299 cells; experiment: in vitro antiproliferation assay, H1299 (lung); assay type: cell-based
Method: The IC50 values of various compounds against a various different tumor cell lines were determined using standard in vitro antiproliferation assays. The tumor cell lines tested were as follows: A549 (lung); H1299 (lung), ACHN (kidney/p53 wt), CAKI (renal cell carcinoma), NCI-H460 (lung); HCT116 (colon/p53w0; HELA (cervix/p53 wt), HUH7 (liver/p53 wt), HUVEC (primary endothelial), LNCAP (prostate), HT-29 (colon); MCF-7 (breast); MCF-7 (breast/ER positive), MDA MB435S (breast); MDA MB231 (breast/ER negative), DU145 (prostate); BxPC-3 (pancreatic); SKOV-3 (ovarian); HepG2 (hepatic), NDHF primary normal human dermal fibroblast), SKMEL28 (breast/p53mut), SKMEL5 (breast/p53 wt), U20S (bone) and PC3 (prostate). […] A blank indicates the specified compound was not tested against the specified cell line.

[3] = IC50 class against A549 (lung) tumor cells
[4] = IC50 class against H1299 (lung) tumor cells
[5] = A549 (lung) cells, in vitro antiproliferation
[6] = H1299 (lung) cells, in vitro antiproliferation
[7] = A549 (lung) cells, antiproliferation
[8] = H1299 (lung) cells, antiproliferation
[9] = Table 5, in vitro antiproliferation, A549 (lung) cells
[10] = Table 5, in vitro antiproliferation, H1299 (lung) cells
[11] = Homo sapiens, IC50 class against A549 (lung) tumor cells
[12] = Homo sapiens, NCI-H1299, IC50 class against H1299 (lung) tumor cells
[13] = Table 7, in vitro antiproliferation, A549 (lung) cells
[14] = Table 7, in vitro antiproliferation, H1299 (lung) cells

SMILES: CN1CCN(c2ccc(Nc3ncc(F)c(NC(C)(C)C)n3)cc2)CC1 [compound 220]
IC50 [1, 3]: ≤ 20 µM | IC50 [2, 4]: ≤ 20 µM

SMILES: Oc1c(Cl)cc(Nc2ncc(F)c(Nc3ccc4c(c3)OC(F)(F)O4)n2)cc1Cl [compound 563]
IC50 [1, 9]: ≤ 20 µM | IC50 [2, 10]: ≤ 20 µM

SMILES: CNC(=O)COc1c(C)cc(Nc2ncc(F)c(Nc3ccc4c(c3)OCO4)n2)cc1C [compound 570]
IC50 [1, 9]: ≤ 20 µM | IC50 [2, 10]: ≤ 20 µM

SMILES: Fc1cnc(Nc2cccc(-c3ncco3)c2)nc1Nc1ccc2c(c1)OCCO2 [compound 515]
IC50 [1, 9]: ≤ 20 µM | IC50 [2, 10]: ≤ 20 µM

SMILES: Cc1cc(Nc2ncc(F)c(Nc3cc(C4CC4)[nH]n3)n2)ccc1N1CCN(C)CC1 [compound 213]
IC50 [1, 11]: ≤ 20 µM | IC50 [2, 12]: ≤ 20 µM

SMILES: CC(C)Nc1nc(Nc2cccc(N3CCN(C)CC3)c2)ncc1F [compound 219]
IC50 [1, 3]: ≤ 20 µM | IC50 [2, 4]: ≤ 20 µM

SMILES: Cc1cc(C)cc(Nc2ncc(F)c(Nc3ccc4c(c3)OC(F)(F)O4)n2)c1 [compound 562]
IC50 [1, 9]: ≤ 20 µM | IC50 [2, 10]: ≤ 20 µM

SMILES: CNC(=O)c1cc2cccc(Nc3ncc(F)c(Nc4ccc5c(c4)OCO5)n3)c2[nH]1 [compound 655]
IC50 [1, 13]: ≤ 20 µM | IC50 [2, 14]: ≤ 20 µM

SMILES: COC(=O)c1cc2cccc(Nc3ncc(F)c(N(C)c4ccc5c(c4)OCCO5)n3)c2o1 [compound 661]
IC50 [1, 13]: > 20 µM | IC50 [2, 14]: > 20 µM

SMILES: COc1cc(Nc2ncc(F)c(Nc3ccc4c(n3)NCCO4)n2)cc(OC)c1OC [compound 611]
IC50 [1, 3]: ≤ 20 µM | IC50 [2, 4]: ≤ 20 µM

SMILES: Fc1cnc(Nc2ccc(C(F)(F)F)cc2)nc1Nc1ccc(C(F)(F)F)cc1 [compound 701]
IC50 [1, 5]: > 20 µM | IC50 [2, 6]: > 20 µM

SMILES: CCN1CCN(c2ccc(Nc3ncc(F)c(NC4CCCCC4)n3)cn2)CC1 [compound 169]
IC50 [1, 3]: ≤ 20 µM | IC50 [2, 4]: ≤ 20 µM

SMILES: CCOc1ccc(Nc2ncc(F)c(Nc3ccc(OC)c(OC)c3)n2)cc1 [compound 713]
IC50 [1, 5]: ≤ 20 µM | IC50 [2, 6]: ≤ 20 µM

The next lines start with the values.

IC50 ([1]; A549 (lung) cells): > 20 µM | IC50 ([2]; H1299 (lung) cells): > 20 µM
SMILES: Fc1cnc(Nc2ccc3c(cnn3CC3CCCCC3)c2)nc1Nc1ccc(Cl)c(Cl)c1 [compound 1091]

IC50 [1, 5]: ≤ 20 µM | IC50 [2, 6]: ≤ 20 µM
SMILES: COc1ccc(Nc2nc(Nc3cc(Cl)c(O)c(Cl)c3)ncc2F)cc1Cl [compound 828]

IC50 [1, 7]: ≤ 20 µM | IC50 [2, 8]: ≤ 20 µM
SMILES: Cc1cc(C)cc(Nc2nc(Nc3cc(CO)cc(CO)c3)ncc2F)c1 [compound 897]

IC50 ([1]; A549 (lung) cells): ≤ 20 µM | IC50 ([2]; H1299 (lung) cells): ≤ 20 µM
SMILES: CC1(C)Oc2ccc(Nc3nc(Nc4ccc5cnn(C(C)(C)CC6CC6)c5c4)ncc3F)cc2NC1=O [compound 1112]

IC50 ([1]; A549 (lung) cells): ≤ 20 µM | IC50 ([2]; H1299 (lung) cells): ≤ 20 µM
SMILES: CCCn1ncc2cc(Nc3ncc(F)c(Nc4ccc(OC)c(Cl)c4)n3)ccc21 [compound 1074]

IC50 [1, 11]: > 20 µM | IC50 [2, 12]: > 20 µM
SMILES: COC(=O)N1CCN(c2ccc(Nc3ncc(F)c(Nc4cccc(Nc5ncc[nH]5)c4)n3)cc2)CC1 [compound 1057]

IC50 [1, 5]: > 20 µM | IC50 [2, 6]: > 20 µM
SMILES: Cc1ccc(Nc2ncc(F)c(Nc3ccc(C)cc3)n2)cc1 [compound 721]

IC50 [1, 7]: ≤ 20 µM | IC50 [2, 8]: ≤ 20 µM
SMILES: COc1ccc(Nc2nc(Nc3cccc(-c4ncon4)c3)ncc2F)cc1OC [compound 886]

IC50 [1, 5]: ≤ 20 µM | IC50 [2, 6]: ≤ 20 µM
SMILES: OCc1cc(CO)cc(Nc2ncc(F)c(Nc3ccc(Cl)c(Cl)c3)n2)c1 [compound 844]

IC50 [1, 7]: > 20 µM | IC50 [2, 8]: > 20 µM
SMILES: O=C(COc1cccc(Nc2ncc(F)c(Nc3cc(Cl)c(O)c(Cl)c3)n2)c1)N1CCNCC1 [compound 1001]

IC50 ([1]; A549 (lung) cells): ≤ 20 µM | IC50 ([2]; H1299 (lung) cells): > 20 µM
SMILES: CCCCn1ncc2cc(Nc3ncc(F)c(Nc4ccc(OC)c(Cl)c4)n3)ccc21 [compound 1082]

IC50 ([1]; A549 (lung) cells): ≤ 20 µM | IC50 ([2]; H1299 (lung) cells): ≤ 20 µM
SMILES: COc1ccc(Nc2nc(Nc3ccc4cnn(C(C)(C)CC5CCCCC5)c4c3)ncc2F)cc1Cl [compound 1094]

IC50 ([1]; Homo sapiens, A549 (lung) cells): ≤ 20 µM | IC50 ([2]; Homo sapiens, NCI-H1299, H1299 (lung) cells): > 20 µM
SMILES: Cc1ccc(CNc2ncc(F)c(Nc3ccc4c(c3)OCCO4)n2)cc1Cl [compound 1146]

IC50 ([1]; A549 (lung) cells): ≤ 20 µM | IC50 ([2]; H1299 (lung) cells): ≤ 20 µM
SMILES: CCCn1ncc2ccc(Nc3ncc(F)c(Nc4ccc(F)c(OC)c4)n3)cc21 [compound 1077]

IC50 [1, 7]: > 20 µM | IC50 [2, 8]: > 20 µM
SMILES: Cc1cc(N(C)c2nc(Nc3cccc(-c4cnco4)c3)ncc2F)cc(C)c1Cl [compound 914]

IC50 [1, 7]: ≤ 20 µM | IC50 [2, 8]: ≤ 20 µM
SMILES: NC(=O)c1ccc(Nc2nc(Nc3cc(Cl)c(O)c(Cl)c3)ncc2F)cc1 [compound 1027]

IC50 [1, 7]: ≤ 20 µM | IC50 [2, 8]: ≤ 20 µM
SMILES: CNC(=O)COc1cccc(Nc2ncc(F)c(Nc3cccc(CN)c3)n2)c1 [compound 970]
